Measured values: EPA's ToxRefDB 2

Tests used:
[1] = test system: rat; settings: Subchronic oral toxicity in rodents, sprague dawley, Water, dose end: 90 day, group: systemic
[2] = test system: rat; settings: Combined chronic toxicity/carcinogenicity, sprague dawley, Oral, Feed, dose end: 2 year, group: systemic
[3] = test system: rabbit; settings: Prenatal developmental toxicity study, new zealand white, Oral, Gavage/Intubation, dose end: 18 GD
[4] = test system: rat; settings: Multigenerational reproductive toxicity study, CRL:CD BR/VAF/PLUS, Oral, Feed, dose end: 2 generation
[5] = test system: rat; settings: Subchronic oral toxicity in rodents, sprague dawley, Feed, dose end: 13 week
[6] = test system: mouse; settings: Carcinogenicity, cd1, Oral, Feed, dose end: 99 week, group: systemic
[7] = test system: dog; settings: Chronic toxicity, beagle, Oral, Feed, dose end: 52 week, group: systemic
[8] = test system: rat; settings: Subchronic oral toxicity in rodents, other, Feed, dose end: 90 day, group: systemic, systemic / in life observation / food consumption / food consumption
[9] = test system: dog; settings: Subchronic oral toxicity in nonrodent, beagle, Capsule, dose end: 90 day, group: systemic, systemic / clinical chemistry / alkaline phosphatase (alp/alk) / alkaline phosphatase (alp/alk) + systemic / pathology microscopic / liver…
[10] = test system: rat; settings: Multigenerational reproductive toxicity study, sprague dawley, Inhalation, Whole-Body, dose end: 2 generation
[11] = test system: rat; settings: Prenatal developmental toxicity study, sprague dawley, Inhalation, Whole-Body, dose end: 15 GD, group: maternal
[12] = test system: mouse; settings: Carcinogenicity; other; Oral; Feed; dose end: 21 month; group: systemic; systemic / pathology microscopic / liver / hypertrophy
[13] = test system: rat; settings: Combined chronic toxicity/carcinogenicity, wistar, Oral, Feed, dose end: 2 year, group: systemic
[14] = test system: rabbit; settings: Prenatal developmental toxicity study, other, Oral, Gavage/Intubation, dose end: 18 GD
[15] = test system: rat; settings: Prenatal developmental toxicity study, sprague dawley, Oral, Gavage/Intubation, dose end: 15 GD
[16] = test system: rat; settings: Multigenerational reproductive toxicity study, other, Oral, Feed, dose end: 2 generation
[17] = test system: dog; settings: Chronic toxicity, beagle, Oral, Feed, dose end: 24 month, group: systemic
[18] = test system: rat; settings: Prenatal developmental toxicity study; sprague dawley; Oral; Gavage/Intubation; dose end: 15 GD; group: developmental; developmental / developmental malformation / bone / absent
[19] = test system: mouse; settings: Combined chronic toxicity/carcinogenicity, Oral, Feed, dose end: 2 year, group: systemic
[20] = test system: rat; settings: Prenatal developmental toxicity study, sprague dawley, Oral, Gavage/Intubation, dose end: 15 GD; remark: listed apart in the source
[21] = systemic / clinical chemistry / cholesterol / cholesterol + systemic / in life observation / mortality / mortality + systemic / pathology …
[22] = systemic / pathology microscopic / adrenal gland / vacuolization + systemic / organ weight / thyroid gland / relative to body weight + …
[23] = group: developmental, developmental / developmental malformation / bone / delayed ossification + developmental / developmental malformation / bone / full …
[24] = group: maternal, systemic / in life observation / body weight / body weight gain
[25] = group: maternal, systemic / in life observation / body weight / body weight gain + reproductive / reproductive performance / aborted / aborted + reproductive…
[26] = group: offspring, developmental / offspring survival late / lactation index / lactation index + developmental / offspring survival late / [other] / [other] + …
[27] = group: parental, systemic / in life observation / body weight / body weight gain + systemic / in life observation / food consumption / food consumption
[28] = group: parental, systemic / in life observation / body weight / body weight gain + systemic / in life observation / food consumption / food consumption + …
[29] = group: maternal, reproductive / reproductive performance / estrous cycle / corpora lutea
[30] = group: systemic, systemic / in life observation / body weight / body weight + systemic / in life observation / food consumption / food consumption + systemic…
[31] = group: systemic, systemic / organ weight / liver / nos
[32] = systemic / pathology microscopic / testes / hypertrophy + systemic / pathology microscopic / testes / vacuolization + systemic / pathology …
[33] = systemic / hematology / heinz body / heinz body + systemic / organ weight / prostate / absolute
[34] = systemic / hematology / heinz body / heinz body + systemic / organ weight / prostate / absolute + systemic / clinical chemistry / alanine …
[35] = group: offspring, systemic / in life observation / body weight / offspring (pup) weight
[36] = group: parental, systemic / organ weight / epididymis / absolute + systemic / organ weight / epididymis / relative to body weight + systemic / organ weight…
[37] = group: reproductive, reproductive / reproductive performance / fertility / fertility + reproductive / reproductive performance / pregnancy / pregnancy + …
[38] = systemic / in life observation / body weight / body weight gain + systemic / organ weight / spleen / absolute + systemic / organ weight / …
[39] = systemic / pathology microscopic / thyroid gland / adenoma + systemic / in life observation / body weight / body weight + systemic / organ …
[40] = group: developmental, developmental / developmental malformation / bone / incomplete ossification + developmental / developmental malformation / bone / misshapen
[41] = group: developmental, developmental / developmental malformation / bone / incomplete ossification + developmental / developmental malformation / bone / misshapen…
[42] = group: developmental, developmental / developmental malformation / bone / [other] + developmental / developmental malformation / bone / full supernumerary + …
[43] = group: maternal, systemic / in life observation / clinical signs / motor activity
[44] = group: maternal, systemic / in life observation / clinical signs / motor activity + systemic / in life observation / body weight / body weight gain
[45] = group: offspring, developmental / offspring survival late / lactation index / lactation index + developmental / offspring survival late / viability index / …
[46] = group: parental, systemic / organ weight / ovary / relative to body weight + systemic / organ weight / ovary / absolute
[47] = group: reproductive, reproductive / reproductive performance / fertility / fertility
[48] = systemic / clinical chemistry / alanine aminotransferase (alt/sgpt) / alanine aminotransferase (alt/sgpt) + systemic / clinical chemistry / …
[49] = systemic / clinical chemistry / urea nitrogen / urea + systemic / clinical chemistry / creatinine / creatinine + systemic / organ weight / …
[50] = group: developmental, developmental / developmental malformation / bladder / distended + developmental / developmental malformation / bone / supernumerary
[51] = group: maternal, reproductive / reproductive performance / resorptions / resorptions + systemic / in life observation / body weight / body weight gain

CC(Cl)C(Cl)Cl (stereo not given) [1,1,2-Trichloropropane]
LOAEL [1, 21]: > 50 mg/kg/day | NEL [1, 21]: 0.5 mg/kg/day | NOAEL [1, 21]: ≥ 50 mg/kg/day | LEL ([1]; systemic / in life observation / mortality / mortality): 5 mg/kg/day

CC(C)NC(=O)N1CC(=O)N(c2cc(Cl)cc(Cl)c2)C1=O [Iprodione]
LEL [2, 22]: 6.1 mg/kg/day | NEL [2, 22]: < 6.1 mg/kg/day | LOAEL ([2]; systemic / pathology microscopic / liver / hypertrophy + systemic / organ weight / liver / absolute + systemic / organ weight / liver / …): 12.4 mg/kg/day | NOAEL ([2]; systemic / pathology microscopic / liver / hypertrophy + systemic / pathology microscopic / adrenal gland / rarefaction + systemic / …): 6.1 mg/kg/day | LEL [3, 23]: 200 mg/kg/day | LOAEL [3, 23]: 200 mg/kg/day | NEL [3, 23]: 60 mg/kg/day | NOAEL [3, 23]: 60 mg/kg/day | LEL [3, 24]: 60 mg/kg/day | LOAEL [3, 24]: 60 mg/kg/day | NEL [3, 25]: 20 mg/kg/day | NOAEL [3, 25]: 20 mg/kg/day | LEL [4, 26]: 158 mg/kg/day | LOAEL [4, 26]: 158 mg/kg/day | NEL [4, 26]: 54.7 mg/kg/day | NOAEL [4, 26]: 54.7 mg/kg/day | LEL [4, 27]: 54.7 mg/kg/day | LOAEL [4, 27]: 54.7 mg/kg/day | NEL [4, 28]: 16.5 mg/kg/day | NOAEL [4, 28]: 16.5 mg/kg/day | LEL [5, 29]: 184 mg/kg/day | LOAEL [5, 29]: 184 mg/kg/day | NEL [5, 29]: 89 mg/kg/day | NOAEL [5, 29]: 89 mg/kg/day | LOAEL [5, 30]: 151 mg/kg/day | NOAEL [5, 30]: 78 mg/kg/day | LEL [5, 31]: 89 mg/kg/day | NEL [5, 31]: < 89 mg/kg/day | LOAEL ([6]; systemic / pathology microscopic / testes / hypertrophy + systemic / pathology microscopic / testes / vacuolization): 115 mg/kg/day | LEL [6, 32]: 115 mg/kg/day | NEL [6, 32]: 23 mg/kg/day | NOAEL [6, 32]: 23 mg/kg/day | LEL [7, 33]: 24.9 mg/kg/day | LOAEL [7, 33]: 24.9 mg/kg/day | NEL [7, 34]: 4.12 mg/kg/day | NOAEL [7, 34]: 4.12 mg/kg/day | LEL [8]: 25 mg/kg/day | LOAEL [8]: > 50 mg/kg/day | NEL [8]: 7.5 mg/kg/day | NOAEL [8]: ≥ 50 mg/kg/day | LEL [9]: 180 mg/kg/day | LOAEL [9]: 180 mg/kg/day | NEL [9]: 60 mg/kg/day | NOAEL [9]: 60 mg/kg/day

O=[N+]([O-])c1ccccc1 [Nitrobenzene]
LEL [10, 35]: 40 ppm | LOAEL [10, 35]: > 40 ppm | NEL [10, 35]: 10 ppm | NOAEL [10, 35]: ≥ 40 ppm | LEL [10, 36]: 40 ppm | LOAEL [10, 36]: > 40 ppm | NEL [10, 36]: 10 ppm | NOAEL [10, 36]: ≥ 40 ppm | NEL ([10]; group: reproductive, reproductive / reproductive performance / fertility / fertility + reproductive / reproductive performance / pregnancy / pregnancy): 10 ppm | LEL [10, 37]: 40 ppm | LOAEL [10, 37]: > 40 ppm | NOAEL [10, 37]: ≥ 40 ppm | LOAEL [11, 38]: > 40 ppm | NEL [11, 38]: 1 ppm | NOAEL [11, 38]: ≥ 40 ppm | LEL ([11]; systemic / organ weight / spleen / absolute + systemic / organ weight / spleen / relative to body weight): 10 ppm

CC(C)(C)C(=O)C(Oc1ccc(Cl)cc1)n1cncn1 (stereo not given) [Triadimefon]
LEL [12]: 19.6 mg/kg/day | LOAEL [12]: 19.6 mg/kg/day | NEL [12]: < 19.6 mg/kg/day | NOAEL [12]: < 19.6 mg/kg/day | LEL ([13]; systemic / hematology / leukocyte (wbc) count differential / leukocyte (wbc) + systemic / organ weight / liver / nos): 22.5 mg/kg/day | NEL ([13]; systemic / hematology / leukocyte (wbc) count differential / leukocyte (wbc) + systemic / organ weight / liver / nos + systemic / clinical …): 3.6 mg/kg/day | LOAEL [13, 39]: 114 mg/kg/day | NOAEL [13, 39]: 16.4 mg/kg/day | LEL [14, 40]: 50 mg/kg/day | LOAEL [14, 40]: 50 mg/kg/day | NEL [14, 41]: 20 mg/kg/day | NOAEL [14, 41]: 20 mg/kg/day | LEL [14, 24]: 120 mg/kg/day | LOAEL [14, 24]: 120 mg/kg/day | NEL [14, 24]: 50 mg/kg/day | NOAEL [14, 24]: 50 mg/kg/day | LOAEL ([15]; group: developmental, developmental / developmental malformation / bone / [other]): 100 mg/kg/day | NEL [15, 42]: 25 mg/kg/day | NOAEL [15, 42]: 50 mg/kg/day | LEL ([15]; group: developmental, developmental / developmental malformation / bone / full supernumerary): 50 mg/kg/day | LEL [15, 43]: 25 mg/kg/day | LOAEL [15, 43]: 25 mg/kg/day | NEL [15, 44]: 10 mg/kg/day | NOAEL [15, 44]: 10 mg/kg/day | LEL [16, 45]: 90 mg/kg/day | LOAEL [16, 45]: 90 mg/kg/day | NEL [16, 45]: 2.5 mg/kg/day | NOAEL [16, 45]: 2.5 mg/kg/day | NOAEL ([16]; group: parental, systemic / organ weight / ovary / relative to body weight + systemic / in life observation / body weight / body weight + systemic / organ …): 2.5 mg/kg/day | LOAEL ([16]; group: parental, systemic / organ weight / ovary / relative to body weight + systemic / organ weight / epididymis / relative to body weight): 90 mg/kg/day | LEL [16, 46]: 2.5 mg/kg/day | NEL [16, 46]: < 2.5 mg/kg/day | LEL [16, 47]: 90 mg/kg/day | LOAEL [16, 47]: 90 mg/kg/day | NEL [16, 47]: 2.5 mg/kg/day | NOAEL [16, 47]: 2.5 mg/kg/day | LOAEL [17, 48]: 47 mg/kg/day | NOAEL [17, 48]: 11.4 mg/kg/day | NEL ([17]; systemic / clinical chemistry / alkaline phosphatase (alp/alk) / alkaline phosphatase (alp/alk) + systemic / clinical chemistry / …): 3.03 mg/kg/day | LEL ([17]; systemic / pathology microscopic / testes / infiltration cellular / epididymides): 11.4 mg/kg/day | LEL [18]: 10 mg/kg/day | LOAEL [18]: 10 mg/kg/day | NEL [18]: 5 mg/kg/day | NOAEL [18]: 5 mg/kg/day | NOAEL [19, 48]: 40 mg/kg/day | LOAEL ([19]; systemic / clinical chemistry / alanine aminotransferase (alt/sgpt) / alanine aminotransferase (alt/sgpt) + systemic / in life observation…): 240 mg/kg/day | LEL [19, 49]: 6.67 mg/kg/day | NEL [19, 49]: < 6.67 mg/kg/day | LEL [20, 50]: 90 mg/kg/day | LOAEL [20, 50]: 90 mg/kg/day | NEL [20, 50]: 30 mg/kg/day | NOAEL [20, 50]: 30 mg/kg/day | LEL [20, 51]: 90 mg/kg/day | LOAEL [20, 51]: 90 mg/kg/day | NEL [20, 51]: 30 mg/kg/day | NOAEL [20, 51]: 30 mg/kg/day
